The target in the test is agmTA1 receptor (Chlorocebus aethiops (Cercopithecus aethiops, African green monkey), UniProt A0A0D9SAC2, I11T/L334F). As to the kind of experiment: CRE-luciferase reporter functional assay in HEK293 cells transiently expressing agmTA1 receptor. It is filed as cell-based. The note with it: HEK293 cells transfected with pcDNA3.1-agmTA1 and pCRE-Luc; agonist 0.1 nM to 100 μM, 16 to 18 hours; luciferase activity.

The structures appear in SMILES notation.

By EC50 is commonly meant the concentration giving half of the maximal effect. Read a high EC50 as weaker potency. On to `NCC(O)c1ccc(O)cc1` (stereo not drawn) [octopamine], for which the EC50 was roughly 0.2 µM.

`NCCc1c[nH]c2ccccc12` [tryptamine] returned an EC50 of roughly 0.94 µM.

On to `NCCc1ccc(O)cc1` [tyramine], for which the concentration for a half-maximal effect (EC50) is roughly 0.016 µM.

These data come from patent US7368541B2, “Trace amine receptor 1 of the African green monkey” (Merck & Co., Inc., priority 2004, dated 2008).
